From ChEMBL document CHEMBL1136351, “Synthesis and DNA-binding affinity of A-C8/C-C2 alkoxyamido-linked pyrrolo[2,1-c][1,4]benzodiazepine dimers” (Bioorg Med Chem Lett, 2003)

Tests used:
Assay type in all cases: functional
Details in all cases: Bos taurus
Nucleic Acid [1] = experiment: Thermal denaturation in calf thymus DNA after incubation at 37 degrees C for 18 hr at PBD/DNA 1:5 molar ratio
Nucleic Acid [2] = experiment: Thermal denaturation in calf thymus DNA after incubation at 37 degrees C for 0h at PBD/DNA 1:5 molar ratio
Nucleic Acid [3] = experiment: Thermal denaturation in calf thymus DNA after incubation at 37 degree C for 18 hr at PBD/DNA 1:5 molar ratio
Nucleic Acid [4] = experiment: Thermal denaturation in calf thymus DNA after incubation at 37 degrees C Centigrade for 18 hr at PBD/DNA 1:5 molar ratio

Compound | ΔTm (Nucleic Acid [1]) [°C] | ΔTm (Nucleic Acid [2]) [°C] | ΔTm (Nucleic Acid [3]) [°C] | ΔTm (Nucleic Acid [4]) [°C]
COc1cc2c(cc1OCCCCC(=O)N[C@H]1C[C@H]3C=Nc4cc(OCc5ccccc5)c(OC)cc4C(=O)N3C1)N=C[C@@H]1CCCN1C2=O | 10.9 | 6.1 | – | –
COc1cc2c(cc1O)N=C[C@@H]1CCCN1C2=O | – | 0.3 | 0.7 | –
COc1cc2c(cc1OCCCC(=O)N[C@H]1C[C@H]3C=Nc4cc(OCc5ccccc5)c(OC)cc4C(=O)N3C1)N=C[C@@H]1CCCN1C2=O | 9.3 | 3.7 | – | –
COc1cc2c(cc1OCC(=O)N[C@H]1C[C@H]3C=Nc4cc(OCc5ccccc5)c(OC)cc4C(=O)N3C1)N=C[C@@H]1CCCN1C2=O | – | 0.9 | – | 4.7
